Experimental data from PubChem BioAssay AID248 (DTP/NCI, 2004).
Toxic doses and inconclusive results are not listed. Rule as the data show it: active = T/C of 150% or more; inactive = T/C below 125%.

System: L1210 leukemia ip in BDF1 mice, survival T/C
Assay: NCI In Vivo Anticancer Drug Screen. Data for tumor model L1210 Leukemia (intraperitoneal) in B6D2F1 (BDF1) mice
Settings: endpoint: mean survival time, vehicle: saline with Tween-80, higher = longer survival
Procedure, shortened: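 Transplanted-tumor mice were given test agent; controls received vehicle only. Survival readings from the two groups were divided (treated over control).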

[1] = dose: 100.0 mg/kg/injection, schedule: Q01DX009 (ip)
[2] = dose: 100.0 mg/kg/injection, schedule: Q04DX003 (ip)

Measured: T/C

N#Cc1oc2ccccc2c1O
inactive: dose: 25.0 mg/kg/injection, schedule: Q01DX009 (ip) 92 % of control | dose: 50.0 mg/kg/injection, schedule: Q01DX009 (ip) 96 % of control | [1] 92 % of control | [2] 103 % of control

COc1ccc(C(=O)C(C)Br)c(OCc2ccccc2)c1OC (stereo not given)
inactive: [1] 107 % of control | [2] 106 % of control | dose: 200.0 mg/kg/injection, schedule: Q01DX009 (ip) 97 % of control | dose: 200.0 mg/kg/injection, schedule: Q04DX003 (ip) 90 % of control | dose: 400.0 mg/kg/injection, schedule: Q01DX009 (ip) 98 % of control | dose: 400.0 mg/kg/injection, schedule: Q04DX003 (ip) 105 % of control
